Measurements reported in patent US7141564B2, “Nitrogen-containing bicyclic heterocycles for use as antibacterials” (priority 2001, dated 2006).
Where a name gives a salt, the structure may show the parent alone.

Assay: MIC of test compounds against various organisms
Assay type: cell-based
Conditions: not given

`COc1ccc2nccc(NC(=O)C3=CCC(N(CC(=O)O)Cc4ccc5c(c4)NC(=O)CS5)CC3)c2n1` (racemic) [Example 156, (R/S)-4-[Carboxymethyl-(3-oxo-3,4-dihydro-2H-benzo[1,4]thiazin-6-ylmethyl)-amino]-cyclohex-1-enecarboxylic Acid (6-methoxy-[1,5]naphthyridin-4-yl)-amide Bis(trifluoroacetate) Salt] gave an MIC of no more than 16 µg/mL.

Same assay, conditions: versus all these organisms (panel of 10 strains); read-out: MIC

`COc1ccc2nccc(NC(=O)C3=CCC(NCc4ccc5c(c4)NC(=O)CS5)CC3)c2n1` (racemic) [Example 150, (R/S)-4-[(3-Oxo-3,4-dihydro-2H-benzo-[1,4]thiazin-6ylmethyl)-amino]-cyclohex-1-ene carboxylic acid (6-methoxy-[1,5]naphthyridin-4-yl)-amide oxalate] and `COc1ccc2nccc(NC(=O)C3=CCC(NCc4cnc5c(c4)NC(=O)CS5)CC3)c2n1` (racemic) [Example 153, (R/S)-4-[(2-Oxo-2,3-dihydro-1H-pyrido[2,3-b][1,4]thiazin-7-ylmethyl)-amino]-cyclohex-1-ene carboxylic acid (6-methoxy-[1,5]naphthyridin-4-yl)-amide oxalate] cannot be ordered by MIC: no more than 4 µg/mL for the first, no more than 4 µg/mL for the second.

`COc1ccc2nccc(NC(=O)C3=CCC(NCc4cc5c(cc4F)OCC(=O)N5)CC3)c2n1` (racemic) [Example 154, (R/S)-4-[(7-Fluoro-3-oxo-3,4-dihydro-2H-benzo[1,4]oxazin-6-ylmethyl)-amino]-cyclohex-1-ene carboxylic acid (6-methoxy-[1,5]naphthyridin-4-yl)-amide oxalate] and `COc1ccc2nccc(NC(=O)C3=CCC(NCc4cnc5c(c4)NC(=O)CO5)CC3)c2n1` (racemic) [Example 155, (R/S)-4-[(2-Oxo-2,3-dihydro-1H-pyrido[2,3-b][1,4]oxazin-7-ylmethyl)-amino]-cyclohex-1-enecarboxylic Acid (6-methoxy-[1,5]naphthyridin-4-yl)-amide oxalate] cannot be ordered by MIC: no more than 4 µg/mL for the first, no more than 16 µg/mL for the second.

`COc1ccc2nccc(NC(=O)[C@H]3CC[C@H](NCc4ccc5nsnc5c4)CC3)c2n1` [Example 2, Trans-4-[(Benzo[1,2,5]thiadiazol-5-ylmethyl)-amino]-cyclohexanecarboxylic acid (6-methoxy-[1,5]naphthyridin-4-yl)-amide fumarate salt] and `COc1ccc2nccc(NC(=O)[C@H]3CC[C@H](NCc4ccc5snnc5c4)CC3)c2n1` [Example 6, Trans-4-[(Benzo[1,2,3]thiadiazol-5-ylmethyl)-amino]-cyclohexanecarboxylic acid (6-methoxy-[1,5]naphthyridin-4-yl)-amide fumarate salt] cannot be ordered by MIC: no more than 4 µg/mL for the first, no more than 4 µg/mL for the second.

`COc1ccc2nccc(NC(=O)[C@H]3CC[C@H](NCc4cc5cccnc5[nH]4)CC3)c2n1` [Example 3, Trans-4-[(1H-Pyrrolo[2,3-b]pyridin-2-ylmethyl)-amino]-cyclohexanecarboxylic acid (6-methoxy-[1,5]naphthyridin4-yl)-amide fumarate salt] and `COc1ccc2nccc(NC(=O)[C@H]3CC[C@H](NCc4cc5cccc(O)c5c(=O)[nH]4)CC3)c2n1` [Example 17, Trans-4-[(8-Hydroxy-1-oxo-1,2-dihydro-isoquinolin-3-ylmethyl)-amino]-cyclohexanecarboxylic acid (6-methoxy-[1,5]naphthyridin-4-yl)-amide dihydrochloride salt] cannot be ordered by MIC: no more than 4 µg/mL for the first, no more than 16 µg/mL for the second.

`COc1ccc2nccc(NC(=O)[C@H]3CC[C@H](NCc4ccc5c(c4)NC(=O)CS5)CC3)c2n1` [Example 4, Trans-4-[(3-Oxo-3,4-dihydro-2H-benzo[1,4]thiazin-6-ylmethyl)-amino]-cyclohexane carboxylic acid (6-methoxy-[1,5]naphthyridin-4-yl)-amide fumarate salt] and `COc1ccc2nccc(NC(=O)[C@H]3CC[C@H](NCc4ccc5c(c4)NC(=O)CO5)CC3)c2n1` [Example 8, Trans-4-[(3-Oxo-3,4-dihydro-2H-benzo[1,4]oxazin-6-ylmethyl)-amino]-cyclohexanecarboxylic acid (6-methoxy-[1,5]naphthyridin-4-yl)-amide fumarate salt] cannot be ordered by MIC: no more than 4 µg/mL for the first, no more than 4 µg/mL for the second.

`COc1ccc2nccc(NC(=O)[C@H]3CC[C@H](NCc4ccc5c(c4)OCCO5)CC3)c2n1` [Example 5, Trans-4-[(2,3-Dihydro-benzo[1,4]dioxin-6-ylmethyl)-amino]-cyclohexanecarboxylic acid (6-methoxy-[1,5]naphthyridin-4-yl)-amide fumarate salt] and `COc1ccc2nccc(NC(=O)[C@H]3CC[C@H](NCc4ccc5c(c4)NCCO5)CC3)c2n1` [Example 15, Trans-4-[(3,4-Dihydro-2H-benzo[1,4]oxazin-6-ylmethyl)-amino]-cyclohexanecarboxylic acid (6-methoxy-[1,5]naphthyridin-4-yl)-amide oxalate salt] cannot be ordered by MIC: no more than 4 µg/mL for the first, no more than 16 µg/mL for the second.

`COc1ccc2nccc(NC(=O)[C@H]3CC[C@H](NCc4ccc5c(c4)oc(=O)n5C)CC3)c2n1` [Example 7, Trans-4-[(3-Methyl-2-oxo-2,3-dihydro-benzooxazol-6-ylmethyl)-amino]-cyclohexanecarboxylic acid (6-methoxy-[1,5]naphthyridin-4-yl)-amide oxalate salt] and `COc1ccc2nccc(NC(=O)[C@H]3CC[C@H](NCc4cnc5c(c4)NC(=O)CS5)CC3)c2n1` [Example 13, Trans-4-[(2-Oxo-2,3-dihydro-1H-pyrido[2,3-b][1,4]thiazin-7-ylmethyl)-amino]-cyclohexanecarboxylic Acid (6-methoxy-[1,5]naphthyridin-4-yl)-amide oxalate salt] cannot be ordered by MIC: no more than 64 µg/mL for the first, no more than 4 µg/mL for the second.

`COc1ccc2nccc(NC(=O)[C@H]3CC[C@H](NCc4cc5c(cc4F)OCC(=O)N5)CC3)c2n1` [Example 9] and `COc1ccc2nccc(NC(=O)[C@H]3CC[C@H](NCc4cnc5scnc5c4)CC3)c2n1` [Example 16, Trans-4-[(Thiazolo[5,4-b]-pyridin-6-ylmethyl)-amino]-cyclohexanecarboxylic acid (6-methoxy-[1,5]naphthyridin-4-yl)-amide oxalate salt] cannot be ordered by MIC: no more than 4 µg/mL for the first, no more than 16 µg/mL for the second.

`COc1cc(F)c2nccc(NC(=O)[C@H]3CC[C@H](NCc4ccc5c(c4)OCCO5)CC3)c2c1` [Example 10, Trans-4-[(2,3-Dihydro-benzo[1,4]dioxin-6-ylmethyl)-amino]-cyclohexanecarboxylic acid (8-fluoro-6-methoxy-quinolin-4-yl)-amide Fumarate Salt] and `COc1ccc2nccc(NC(=O)[C@H]3CC[C@H](NCc4ccc5c(c4)OCCO5)CC3)c2c1` [Example 11, Trans-4-[(2,3-Dihydro-benzo[1,4]dioxin-6-ylmethyl)-amino]-cyclohexanecarboxylic acid (6-methoxy-quinolin-4-yl)-amide fumarate salt] cannot be ordered by MIC: no more than 16 µg/mL for the first, no more than 16 µg/mL for the second.

`COc1ccc2nccc(NC(=O)[C@H]3CC[C@H](NCc4ccc5nsnc5c4)CC3)c2c1` [Example 12, Trans-4-[(Benzo[1,2,5]thiadiazol-5-ylmethyl)-amino]-cyclohexanecarboxylic acid (6-methoxy-quinolin-4-yl)-amide fumarate salt] and `COc1ccc2nccc(NC(=O)[C@H]3CC[C@H](NCc4cnc5c(c4)NC(=O)CS5)CC3)c2c1` [Example 14, Trans-4-[(2-Oxo-2,3-dihydro-1H-pyrido[2,3-b][1,4]thiazin-7-ylmethyl)-amino]-cyclohexanecarboxylic acid (6-methoxy-quinolin-4-yl)-amide oxalate salt] cannot be ordered by MIC: no more than 4 µg/mL for the first, no more than 16 µg/mL for the second.
